Measurements published in ChEMBL document CHEMBL5579843, “Multimechanism biological profiling of tetrahydro-β-carboline analogues as selective HDAC6 inhibitors for the treatment of Alzheimer's disease” (Eur J Med Chem, 2024).
Active and inactive are the calls of the source. The rule behind the calls is not given here.

Assays:
Histone deacetylase 1 = Histone deacetylase 1 (Homo sapiens, UniProt Q13547); experiment: Inhibition of HDAC1 (unknown origin)
[1] = biological target: T1, Protein deacetylase HDAC6 (Homo sapiens, UniProt Q9UBN7); experiment: Inhibition of HDAC6 (unknown origin)
T1 sequence (Q9UBN7 whole entry): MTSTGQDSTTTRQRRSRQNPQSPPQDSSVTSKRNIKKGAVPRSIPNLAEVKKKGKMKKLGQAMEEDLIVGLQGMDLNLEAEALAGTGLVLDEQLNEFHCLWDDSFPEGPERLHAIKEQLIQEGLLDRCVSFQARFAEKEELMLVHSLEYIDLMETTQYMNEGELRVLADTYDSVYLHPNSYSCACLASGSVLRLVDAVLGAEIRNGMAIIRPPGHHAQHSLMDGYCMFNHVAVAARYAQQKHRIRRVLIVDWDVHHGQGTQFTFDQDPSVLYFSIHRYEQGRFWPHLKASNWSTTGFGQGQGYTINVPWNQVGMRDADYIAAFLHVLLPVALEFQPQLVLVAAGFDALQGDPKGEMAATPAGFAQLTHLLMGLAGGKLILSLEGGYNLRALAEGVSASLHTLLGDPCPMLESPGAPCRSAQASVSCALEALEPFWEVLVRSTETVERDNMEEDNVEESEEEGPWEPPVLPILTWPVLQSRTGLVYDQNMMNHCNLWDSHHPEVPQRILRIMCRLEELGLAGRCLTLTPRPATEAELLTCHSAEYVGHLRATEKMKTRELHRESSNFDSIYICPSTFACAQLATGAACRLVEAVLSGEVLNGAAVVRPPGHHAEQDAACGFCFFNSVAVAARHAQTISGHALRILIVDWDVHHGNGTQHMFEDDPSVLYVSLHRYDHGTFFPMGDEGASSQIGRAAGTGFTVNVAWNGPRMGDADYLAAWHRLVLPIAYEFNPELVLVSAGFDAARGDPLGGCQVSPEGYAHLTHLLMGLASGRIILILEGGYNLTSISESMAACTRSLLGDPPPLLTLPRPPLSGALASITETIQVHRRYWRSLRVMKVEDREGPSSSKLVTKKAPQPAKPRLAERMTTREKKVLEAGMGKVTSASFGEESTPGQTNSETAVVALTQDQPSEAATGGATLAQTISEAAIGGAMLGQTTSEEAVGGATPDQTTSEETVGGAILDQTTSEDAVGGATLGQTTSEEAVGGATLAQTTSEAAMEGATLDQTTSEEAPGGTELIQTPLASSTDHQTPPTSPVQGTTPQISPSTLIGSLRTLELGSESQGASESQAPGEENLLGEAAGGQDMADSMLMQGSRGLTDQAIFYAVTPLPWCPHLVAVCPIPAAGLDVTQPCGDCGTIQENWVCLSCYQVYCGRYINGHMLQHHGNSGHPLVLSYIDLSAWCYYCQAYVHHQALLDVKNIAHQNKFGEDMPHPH

[2] = Antioxidant activity assessed as DPPH scavenging activity incubated for 0.5 hrs by absorbance based assay; format: functional
[3] = Antioxidant activity assessed as ABTS radical scavenging activity measured after 30 mins by absorbance based analysis; format: functional
Danio rerio = species on record: Danio rerio; experiment: Cognitive improvement ability in scopolamine induced zebrafish alzheimer disease model assessed as improvement in motor activity by measuring increase in total distance of swimming at 20 mg/L pretreated with scopolamine for 30 mins followed by compound addition for 3 mins by T-maze test; format: functional, organism-based
PC-12 [4] = experiment: Neuroprotective activity against H2O2-induced oxidative damage in rat PC-12 cells assessed as increase in cell survival at 10 uM pretreated for 4 hrs followed by 800 uM H2O2 stimulation and measured after 24 hrs by MTT assay; format: functional, cell-based; conditions: time 28.0 hrs
SH-SY5Y [5] = experiment: Neuroprotective activity against H2O2-induced oxidative damage in human SH-SY5Y cells assessed as increase in cell survival at 10 uM pretreated for 4 hrs followed by 200 uM H2O2 stimulation and measured after 24 hrs by MTT assay; format: functional, cell-based; conditions: time 28.0 hrs
[6] = Neurotoxicity against rat PC-12 cells assessed as reduction in cell viability at 10 uM measured after 24 hrs by MTT assay; format: toxicity, cell-based; conditions: pc-12, 24 h
[7] = Neurotoxicity against human SH-SY5Y cells assessed as reduction in cell viability at 10 uM measured after 24 hrs by MTT assay; format: toxicity, cell-based
PC-12 [8] = experiment: Neuroprotective activity against H2O2-induced oxidative damage in rat PC-12 cells assessed as increase in cell survival pretreated for 4 hrs followed by 800 uM H2O2 stimulation and measured after 24 hrs by MTT assay; format: functional, cell-based; conditions: dose 1-10 µM, time 28.0 hrs
SH-SY5Y [9] = experiment: Neuroprotective activity against H2O2-induced oxidative damage in human SH-SY5Y cells assessed as increase in cell survival pretreated for 4 hrs followed by 200 uM H2O2 stimulation and measured after 24 hrs by MTT assay; format: functional, cell-based; conditions: dose 1-10 µM, time 28.0 hrs
PC-12 [10] = experiment: Neuroprotective activity against 6-OHDA-induced oxidative damage in rat PC-12 cells assessed as increase in cell survival at 1 to 10 uM pretreated for 4 hrs followed by 500 uM 6-OHDA stimulation and measured after 24 hrs by MTT assay; format: functional, cell-based; conditions: dose 1-10 µM, time 28.0 hrs
SH-SY5Y [11] = experiment: Neuroprotective activity against 6-OHDA-induced oxidative damage in human SH-SY5Y cells assessed as increase in cell survival at 1 to 10 uM pretreated for 4 hrs followed by 100 uM 6-OHDA stimulation and measured after 24 hrs by MTT assay; format: functional, cell-based; conditions: dose 1-10 µM, time 28.0 hrs
PC-12 [12] = experiment: Neuroprotective activity against H2O2-induced oxidative damage in rat PC-12 cells assessed as SOD activity at 10 uM pretreated for 4 hrs followed by H2O2 stimulation and measured after 24 hrs by WST-8 assay; format: functional; conditions: time 28 hrs
PC-12 [13] = experiment: Neuroprotective activity against H2O2-induced oxidative damage in rat PC-12 cells assessed as increase in Nrf2 protein expression at 10 uM pretreated for 4 hrs followed by H2O2 stimulation and measured after 24 hrs by Western blot analysis; format: functional, cell-based; conditions: time 28.0 hrs
PC-12 [14] = experiment: Neuroprotective activity against H2O2-induced oxidative damage in rat PC-12 cells assessed as increase in catalase protein expression at 10 uM pretreated for 4 hrs followed by H2O2 stimulation and measured after 24 hrs by Western blot analysis; format: functional, cell-based; conditions: time 28.0 hrs
[15] = Neurotoxicity against rat PC-12 cells assessed as cell survival rate at 10 uM measured after 24 hrs by MTT assay relative to control; format: toxicity, cell-based; conditions: read-out: Survival
[16] = Neurotoxicity against human SH-SY5Y cells assessed as cell survival rate at 10 uM measured after 24 hrs by MTT assay relative to control; format: toxicity, cell-based; conditions: read-out: Survival

Sequence of Histone deacetylase 1 (Q13547 whole entry): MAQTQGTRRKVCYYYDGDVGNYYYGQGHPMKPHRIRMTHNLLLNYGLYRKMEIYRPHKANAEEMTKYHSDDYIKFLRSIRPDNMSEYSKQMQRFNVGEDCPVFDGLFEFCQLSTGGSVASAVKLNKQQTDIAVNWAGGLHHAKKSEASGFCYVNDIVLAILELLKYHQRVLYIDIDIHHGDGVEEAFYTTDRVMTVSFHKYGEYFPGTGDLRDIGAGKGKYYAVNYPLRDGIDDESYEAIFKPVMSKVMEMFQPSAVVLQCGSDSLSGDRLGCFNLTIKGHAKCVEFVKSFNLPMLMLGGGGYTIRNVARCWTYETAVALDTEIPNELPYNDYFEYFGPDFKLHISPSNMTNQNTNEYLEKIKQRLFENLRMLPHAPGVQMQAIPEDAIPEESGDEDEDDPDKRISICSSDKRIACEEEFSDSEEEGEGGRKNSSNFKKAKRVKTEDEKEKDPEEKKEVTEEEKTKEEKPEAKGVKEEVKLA

O=C(NO)c1ccc(CN2CCc3c([nH]c4ccccc34)C2)cc1
IC50 (Histone deacetylase 1): 16.5 µM | IC50 [1]: 13.8 nM | IC50 [2]: 35.6 µM | IC50 [3]: 11.4 µM

Cc1ccc2[nH]c3c(c2c1)CN(Cc1ccc(C(=O)NO)cc1)CC3
IC50 [2]: 28.2 µM | IC50 [3]: 9.97 µM

COc1ccc2c3c1O[C@H]1C[C@@H](O)C=C[C@@]31CCN(C)C2
Activity (Danio rerio): Active

O=C(CCCCCC(=O)N1CCc2c([nH]c3ccccc23)C1)NO
Activity (PC-12 [4]): inactive | Activity (SH-SY5Y [5]): inactive | IC50 [2]: 28.4 µM | IC50 [3]: 14.4 µM

O=C(NO)c1ccc(C2NCCc3c2[nH]c2ccccc32)cc1 (centres undefined)
IC50 [1]: > 1000 nM

O=C(NO)c1ccc(CN2CCc3[nH]c4ccccc4c3C2)cc1
IC50 [2]: 26.5 µM | IC50 [3]: 17.2 µM

O=C(NO)c1cccc(CN2CCc3[nH]c4ccccc4c3C2)c1
IC50 [2]: 24.3 µM | IC50 [3]: 16.9 µM

O=C(NO)c1ccc(CNC(=O)[C@@H]2Cc3c([nH]c4ccccc34)[C@@H](c3ccc(Cl)cc3)N2CC2CC2)cc1
IC50 (Histone deacetylase 1): 0.494 µM

O=C1O[C@H]([C@@H](O)CO)C(O)=C1O [ASCORBIC ACID]
IC50 [2]: 23.8 µM | IC50 [3]: 25.5 µM

O=C(NO)c1ccc(CN2CCc3[nH]c4ccc(F)cc4c3C2)cc1
IC50 [2]: 21 µM | IC50 [3]: 9.96 µM

COc1ccc2[nH]c3c(c2c1)CCN(Cc1ccc(/C=C/C(=O)NO)cc1)C3
IC50 (Histone deacetylase 1): 0.0108 µM | IC50 [1]: 19.7 nM | Activity [6]: Toxic | Activity [7]: Toxic

CN1CCc2c(c3ccccc3n2Cc2ccc(C(=O)NO)cc2)C1 [TUBASTATIN A]
Activity (PC-12 [8]): Dose-Dependent Effect | Activity (SH-SY5Y [9]): Dose-Dependent Effect | Activity (PC-12 [10]): Active | Activity (SH-SY5Y [11]): Active | IC50 [2]: 28.2 µM | IC50 [3]: 12.1 µM | Activity (PC-12 [12]): 13.7 U/mg | Activity (PC-12 [13]): Active | Activity (PC-12 [14]): Active

O=C(CCCCCCC(=O)Nc1ccccc1)NO [VORINOSTAT]
viability at 24 h, 10 µM [15]: < 80% | viability at 24 h, 10 µM [16]: < 80%

O=C(NO)c1ccc(CC(=O)N2CCc3c([nH]c4ccccc34)C2)cc1
Activity (PC-12 [4]): inactive | Activity (SH-SY5Y [5]): inactive | IC50 [2]: 30.3 µM | IC50 [3]: 13.8 µM

O=C(NO)c1ccc(C2c3[nH]c4ccccc4c3CCN2Cc2ccccc2)cc1 (centres undefined)
IC50 [1]: > 1000 nM

O=C(CCCCCCC(=O)N1CCc2c([nH]c3ccccc23)C1)NO
Activity [6]: Toxic | Activity [7]: Toxic

COc1ccc2[nH]c3c(c2c1)CCN(Cc1ccc(C(=O)NO)cc1)C3
IC50 (Histone deacetylase 1): 23.7 µM | IC50 [1]: 16.4 nM | IC50 [2]: 29.1 µM | IC50 [3]: 12.6 µM

O=C(/C=C/c1ccc(CN2CCc3[nH]c4ccccc4c3C2)cc1)NO
Activity [6]: Toxic | Activity [7]: Toxic
